# Experimental data: the METLIN SMRT retention time set (Domingo-Almenara et al. 2019)
# Assay: gradient 5% acetonitrile 3 min, to 50% in 2 min, to 85% in 15 min, held 3 min, 100 µL/min
# Conditions: column: Zorbax Extend-C18 2.1 x 50 mm; eluents: water / acetonitrile, 0.1% formic acid
# Summary of the method: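 Standards, all pure, were combined into mixtures of ~100 molecules and run at 100 μL/min on a Zorbax Extend-C18 column (2.1 × 50 mm, 1.8 μm) with water and acetonitrile, each containing 0.1% formic acid. A coupled quadrupole time-of-flight mass spectrometer operated in positive and negative ionization mode. Retention time values come from computationally picked adduct peaks, each inspected manually.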
row,RP-LC retention time,SMILES
1,596 s,O=C(Cc1scnc1-c1cccs1)N1CCN(c2ccccn2)CC1
2,1340 s,COc1cccc(-n2c(=O)c(C(=O)Nc3ccc(Cl)cc3)c(O)c3cccnc32)c1
3,913 s,Cc1cc(OCC(=O)Nc2ccnn2Cc2cccs2)ccc1Cl
4,661 s,O=C(NCc1cc(F)cc(F)c1)c1ccnc(N2CCNC(c3ccccc3)C2)c1 (stereo not drawn)
5,788 s,COC(=O)C1=CN(c2ccc(OC)c(OC)c2)c2ccc(F)cc2S1(=O)=O
6,1050 s,O=C(c1ccc2c(c1)CCCC2)N1CCN(c2ccccc2)CC1
7,859 s,CCc1ccc(NC(=O)C2CCN(S(=O)(=O)c3cc(C(=O)N4CCOCC4)cs3)CC2)cc1
8,1290 s,Cc1oc(-c2ccc(OC(C)C)cc2)nc1CN(c1ccccc1)S(=O)(=O)c1cccs1
9,801 s,O=C(Nc1ccc2scnc2c1)c1ccc(Cl)cc1Cl
10,1100 s,C[C@H]1CN(C(=O)Cc2c(F)cccc2Cl)C[C@@H]1c1nc(-c2ccccc2)no1
11,980 s,COc1ccc(NC(=O)CSc2nccc(N3CCN(c4cc(C)ccc4C)CC3)n2)c(OC)c1
12,738 s,O=S(=O)(c1ccccc1F)N1CC(F)(F)C[C@H]1CN1CCc2ccccc2C1
13,634 s,CCOc1ccccc1N1CCN(c2cc(C(=O)O)c3cc(NC(=O)CC)ccc3n2)CC1
14,876 s,Cc1cc(NC(=O)C2CCN(S(=O)(=O)c3cn(C(C)C)cn3)CC2)ccc1Br
15,751 s,CCS(=O)(=O)N1CCCN(C2=NS(=O)(=O)C(c3ccccc3)=C2C)CC1
16,851 s,Cc1cc(C)cc(N2C(=O)CN(S(C)(=O)=O)CC2(C)C(=O)NCc2ccccc2)c1 (stereo not drawn)
17,643 s,CC(CCNC(=O)c1cc(S(=O)(=O)N2CCCCC2)ccc1Cl)N1CCCC1 (stereo not drawn)
18,773 s,CC(C)OCCCNC(=O)CCCn1c2ccccc2c2cnn(C)c(=O)c21
19,606 s,CC(C)CN1CCCC(COc2ccccc2C(=O)NC2CC2)C1 (stereo not drawn)
20,681 s,CCNC(=O)C1CCCN(c2nc3ncn(CC(=O)Nc4ccc(F)cc4Cl)c(=O)c3s2)C1 (stereo not drawn)
21,949 s,Cc1csc(NC(=O)CN2CCC3(CC2)NC(=O)N(Cc2ccc(Cl)cc2)C3=O)n1
22,1110 s,O=C(c1nc2ccccc2s1)N(Cc1ccsc1)Cc1ccco1

row,RP-LC retention time,SMILES
1,680 s,CCCCN1CN=C(Nc2nc(C)c3ccccc3n2)NC1
2,883 s,COC(=O)C(=Cc1ccccc1[N+](=O)[O-])C(=O)OC
3,667 s,CCCC(NC(=O)c1cccc(N(C)C)c1)C(=O)Nc1nc2ccccc2[nH]1 (stereo not drawn)
4,1080 s,Cc1sc2nc(SCC(=O)Nc3sc4c(c3C#N)CCCC4)n(C)c(=O)c2c1C
5,1410 s,COc1ccc(NC(=O)Cn2nc3c4sc(N(C)C)nc4ncn3c2=O)cc1
6,736 s,COCCCN(C(=O)c1ccccc1)C(C)C(=O)c1c(C)[nH]c(C(=O)OC)c1C (stereo not drawn)
7,1010 s,CCOC(=O)C1CCN(c2ncccc2-c2nnc(-c3ccccc3)o2)CC1
8,836 s,Cc1ccc(S(=O)(=O)N2C[C@@H](F)C[C@H]2C(=O)N2CCCCC2)cc1F
9,976 s,O=C(Nc1nccs1)C1CCN(c2nc(-c3ccc(Cl)cc3)no2)CC1
10,538 s,CCCS(=O)(=O)N1CCC2(CC1)CC(N1CCN(c3ccccc3)CC1)CCO2 (stereo not drawn)
11,889 s,Cc1ccc(NC(=O)C2CCCN(c3nccc(C)n3)C2)c(Br)c1 (stereo not drawn)
12,847 s,CCOc1ccc(CNC(=O)Cc2csc3nc(-c4ccc(C)c(C)c4)cn23)cc1
13,835 s,CCS(=O)(=O)c1nc2ccc(NS(=O)(=O)c3ccccc3F)cc2s1
14,697 s,COCCC(=O)N1CCCN(C2=NS(=O)(=O)C(c3ccc(F)cc3)=C2C)CC1
15,775 s,COc1cccc(N2CCN(C(=O)Cn3ccc4c(SCc5ccccc5)nccc43)CC2)c1
16,706 s,CCCN1CCN(C(=O)c2cn3ccnc(-c4ccccc4)c3n2)CC1
17,698 s,CCNC(=O)c1nc2cc(C)c(C)cc2n(C)c1=O
18,740 s,O=C(C1=CN(c2ccccc2F)c2cc(F)ccc2S1(=O)=O)N1CCOCC1
19,801 s,COc1ccc(Cl)c(Cn2c(NCC3CCCO3)nc3c2c(=O)n(C)c(=O)n3C)c1 (stereo not drawn)
20,812 s,COc1cc(C(=O)N2CCC3(CC2)N=C(c2ccc(Cl)cc2)C(=O)N3)cc(OC)c1OC
21,960 s,Cc1c(C(=O)N2CCSCC2)cnn1-c1ccc(-c2nc(C3CC3)no2)cn1

# Second part, the compound before the results:
row,SMILES,RP-LC retention time
1,CC(C)Cn1cc(CCNC(=O)c2ccccc2)c2cccnc21,770 s
2,COc1ccc(N2C=C(C(=O)N3CCCC3)S(=O)(=O)c3ccccc32)cc1Cl,808 s
3,COc1ccc2c(c1)C1(CCN(C(=O)c3cccs3)C1)C(=O)N2C (stereo not drawn),738 s
4,CCCCN1CCN(C(=O)C2c3ccccc3CCN2C(=O)CC)CC1 (stereo not drawn),626 s
5,Cc1cc2nc(C(F)(F)F)c(=O)n(C(C)C(=O)NCc3ccco3)c2cc1C (stereo not drawn),756 s
6,O=C(CN1CCC(c2nc(-c3ccccc3)no2)CC1)Nc1ccccc1Br,795 s
7,Cc1ccccc1OCCCC(=O)Nc1nc(-c2ccccc2)cs1,1180 s
8,O=S(=O)(c1ccccc1F)N1CC(n2cnnc2-c2ccccc2)C1,671 s
9,CCOC(=O)c1c(C)oc2nc(C)nc(NCC3CCN(Cc4ccc(F)cc4)CC3)c12,712 s
10,Cc1cc2n(n1)CCCN2C(=O)CCC(=O)N1CCN(c2cccc(Cl)c2)CC1,778 s
11,N#Cc1cccc(CN2CCC3(CCC3O)CC2)c1 (stereo not drawn),565 s
12,Cc1ccccc1NC(=O)c1cccn1Cc1noc(C2CC2)n1,880 s
13,O=C(Cc1cccs1)N1CCCn2nc(-c3ccncc3)cc2C1,591 s
14,c1cc(-c2noc(C3CCOCC3)n2)ccc1OC1CNC1,640 s
15,CCCn1cc(S(=O)(=O)NCc2ccccc2C(F)(F)F)c2cccnc21,988 s
16,COc1cccc(-c2cc(C(=O)N3CCC(NC(=O)c4cccc(Cl)c4)CC3)[nH]n2)c1,740 s
17,CC(C)OC(=O)c1c(-c2ccccc2)c(-c2ccccc2)n[nH]c1=O,910 s
18,O=C(Cn1cnc2nc(N3CCC(C(=O)NC4CC4)CC3)sc2c1=O)Nc1ccc2c(c1)CCC2,670 s
19,CCOC(=O)c1cc([N+](=O)[O-])sc1NC(=O)c1ccc(Cl)s1,1310 s
20,COc1ccc(OC)c(NC(=O)N2C[C@@H](F)C[C@H]2C(=O)N2CCCCC2)c1,720 s
21,Cc1nnc2ccc(-c3noc(-c4cccc(F)c4)n3)cn12,881 s
22,CCOc1cccc(-c2noc(Cn3nc(-c4ccc(F)cc4)ccc3=O)n2)c1,1060 s
23,O=C(NC1CCCCC1)N1CC(F)(F)C[C@H]1CN1CCc2ccccc2C1,792 s

row,SMILES,RP-LC retention time
1,CC1CCN(c2nc(=O)n(CC(=O)Nc3ccc4c(c3)OCCO4)c3ccccc23)CC1,812 s
2,CCOc1ccccc1CNC(=O)CCc1nnc2c3cc(-c4ccc(OC)cc4)nn3ccn12,797 s
3,COc1ccc(NC(=O)Cn2c(C)nc3c(sc4nc(-c5ccccc5)ccc43)c2=O)cc1Cl,1090 s
4,Cc1cc(C)cc(N2CC(C)Cn3c2nc2c3c(=O)n(CC(=O)O)c(=O)n2C)c1 (stereo not drawn),826 s
5,COc1ccc2c(CCNC(=O)COc3ccc(Cl)cc3)c[nH]c2c1,879 s
6,C(=C\c1ccccc1)/CN1CCN(CCOC(c2ccccc2)c2ccccc2)CC1,884 s
7,COCCc1noc(C2CN(S(=O)(=O)c3ccc(C#N)cc3)C2)n1,768 s
8,CCOC(=O)c1sc(NC(=O)c2ccccc2F)nc1-c1ccccc1,1100 s
9,COCCCN(Cc1ccco1)c1nc(-c2ccc(OC)cc2)nc2ccccc12,823 s
10,O=C1C[C@@H](c2ccc(O)c(O)c2)Oc2c1ccc(O[C@@H]1O[C@H](CO)[C@@H](O)[C@H](O)[C@H]1O)c2O,617 s
11,O=C(Nc1ccc(-c2nc(-c3ccccc3)no2)cc1)c1ccc(Br)o1,1180 s
12,Cn1cnc(S(=O)(=O)N2c3ccccc3CC2c2nnc(C3CCOCC3)o2)c1 (stereo not drawn),680 s
13,CCN1C(=O)COc2ccc(-c3noc(C4CCCN(S(=O)(=O)c5ccc(C)cc5)C4)n3)cc21 (stereo not drawn),1100 s
14,O=C(Cn1cnc2nc3c(cc2c1=O)CCCC3)N1CCN(c2cccc(C(F)(F)F)c2)CC1,881 s
15,COC(=O)c1c(C)[nH]c(C(=O)N2CCC(CC(=O)NCc3ccc(Cl)cc3)CC2)c1C,774 s
16,CC(NC(=O)Cn1cc(C(=O)C(=O)N2CCCC2)c2ccccc21)c1ccc2c(c1)OCCCO2 (stereo not drawn),815 s
17,COCCNC(=O)c1ccccc1-c1ocnc1C(=O)OC,611 s
18,C=CCNC(=O)c1cn(-c2ccc(-c3nc(C4CC4)no3)cn2)cn1,788 s
19,CC(C)NC(=O)CN1C(=O)CSc2ccc(C(=O)N3CCCCC3)cc21,673 s
20,O=C(Nc1ccccc1)N1CCN(c2nc(-c3ccccc3)ns2)CC1,1020 s
21,Cc1ccc(F)c(NS(=O)(=O)c2cc3c(s2)CCN(C(=O)C2CCC2)C3)c1,891 s
22,CCOCCCNC(=O)CC1CCN(c2ccnc(OC)n2)CC1,574 s
